biological target: Mitogen-activated protein kinase 1 (Homo sapiens) (UniProt P28482); assay: P-MAPK1 protein lowering, cellular counter-screen – SW620 cells, chemiluminescent western blot, powder samples, counter-screen for KLF5 inhibitor project, late-stage follow-up (AID 588668); conditions: phospho-ERK1/2 western blot, 24 h, at 10 µM
Sequence (P28482 whole entry, looked up): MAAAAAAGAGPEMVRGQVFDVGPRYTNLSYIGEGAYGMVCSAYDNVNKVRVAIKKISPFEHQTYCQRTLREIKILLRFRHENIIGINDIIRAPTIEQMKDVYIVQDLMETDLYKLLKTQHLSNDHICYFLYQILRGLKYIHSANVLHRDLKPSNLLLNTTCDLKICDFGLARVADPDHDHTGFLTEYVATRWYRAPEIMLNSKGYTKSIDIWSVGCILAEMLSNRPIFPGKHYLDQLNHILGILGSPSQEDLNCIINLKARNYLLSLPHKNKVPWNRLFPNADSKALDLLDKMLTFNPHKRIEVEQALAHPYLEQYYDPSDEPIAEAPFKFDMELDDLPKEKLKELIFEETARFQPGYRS

Question: How did the phospho-ERK1/2 inhibition (% vs DMSO), active compounds read high turn out when CN(C(=O)CNC(=O)/C=C/c1cccc(Cl)c1)C1CCS(=O)(=O)C1 (stereo not drawn) was run?
Answer: 31.3%

Question: For CN(C(=O)CNC(=O)/C=C/c1cccc(Cl)c1)C1CCS(=O)(=O)CC1, which phospho-ERK1/2 inhibition (% vs DMSO), active compounds read high is on record?
Answer: 48.2%

Question: Which phospho-ERK1/2 inhibition (% vs DMSO), active compounds read high does the source give for CN(C(=O)COC(=O)/C=C/c1cccc([N+](=O)[O-])c1)C1CCS(=O)(=O)C1 (stereo not drawn) here?
Answer: 35.6%

From PubChem BioAssay AID588668 (The Scripps Research Institute Molecular Screening Center, 2011)
